# Results published in patent US20080281105A1, “Novel Quinolinium Salts and Derivatives” (IMMUSOL INCORPORATED, priority 2005, published 2008).
# Key:
# Pc3M/N [1] = assay: Cell growth in soft agar culture (alamarBlue); details: Homo sapiens, PC-3M, 168 h, read-out: IC50 (uM) Soft agar
# HS578 [2] = assay: Cell growth in soft agar culture (alamarBlue); details: Hs578, 168 h, read-out: IC50 (uM) Soft agar
# DLD1 [3] = assay: Cell growth in liquid culture (alamarBlue); details: Homo sapiens, DLD-1, 72 h, read-out: IC50 (uM) Liquid culture
# HS578 [4] = assay: Cell growth in liquid culture (alamarBlue); details: Hs578, 72 h, read-out: IC50 (uM) Liquid culture
# Panc-1 [5] = assay: Cell growth in liquid culture (alamarBlue); details: Homo sapiens, PANC-1, 72 h, read-out: IC50 (uM) Liquid culture
# [6] = system: HCT116 colon cancer cells; details: HCT116 xenograft, I.p.
# Excerpt: Female athymic nude (nu/nu) mice were inoculated with HCT116 colon cancer cells, and the tumors were allowed to grow to a volume of about 150 mm^3.
# HCT116 = assay: Cell growth in liquid culture (alamarBlue); details: Homo sapiens, HCT-116, 72 h, read-out: IC50 (uM) Liquid culture
# SK-OV-3 = assay: Cell growth in soft agar culture (alamarBlue); details: Homo sapiens, SK-OV-3, 168 h, read-out: IC50 (uM) Soft agar
# MDA_MB-435 [7] = assay: Cell growth in liquid culture (alamarBlue); details: Homo sapiens, MDA-MB-435, 72 h, read-out: IC50 (uM) Liquid culture
# MDA_MB-435 [8] = assay: Cell growth in soft agar culture (alamarBlue); details: Homo sapiens, MDA-MB-435, 168 h, read-out: IC50 (uM) Soft agar
# IMR90 = assay: Cell growth in liquid culture (alamarBlue); details: Homo sapiens, IMR-90, 72 h, read-out: IC50 (uM) Liquid culture
# HCT-116 = assay: Liquid growth culture with and without added glucose (alamarBlue); type: cell-based; details: Homo sapiens
# Excerpt: (§1) The method is as follows:
# Pc3M/N [9] = assay: as above; type: cell-based; details: Homo sapiens, PC-3M
# Excerpt: as §1
# Panc-1 [10] = assay: as above; type: cell-based; details: Homo sapiens
# Excerpt: as §1
# SKBR3 [11] = assay: Cell growth in soft agar culture (alamarBlue); details: Homo sapiens, SK-BR-3, 168 h, read-out: IC50 (uM) Soft agar
# A2058 = assay: Cell growth in liquid culture (alamarBlue); details: Homo sapiens, A2058, 72 h, read-out: IC50 (uM) Liquid culture
# UACC257 = assay: Cell growth in soft agar culture (alamarBlue); details: Homo sapiens, UACC-257, 168 h, read-out: IC50 (uM) Soft agar
# UACC62 = assay: Cell growth in liquid culture (alamarBlue); details: Homo sapiens, UACC-62, 72 h, read-out: IC50 (uM) Liquid culture
# T47D = assay: Cell growth in liquid culture (alamarBlue); details: Homo sapiens, 72 h, read-out: IC50 (uM) Liquid culture
# DLD1 [12] = assay: Cell growth in soft agar culture (alamarBlue); details: Homo sapiens, DLD-1, 168 h, read-out: IC50 (uM) Soft agar
# OVCAR-1 = assay: Cell growth in liquid culture (alamarBlue); details: OVCAR1, 72 h, read-out: IC50 (uM) Liquid culture
# SKBR3 [13] = assay: Cell growth in liquid culture (alamarBlue); details: Homo sapiens, SK-BR-3, 72 h, read-out: IC50 (uM) Liquid culture
# Caov-3 = assay: Cell growth in liquid culture (alamarBlue); details: Homo sapiens, Caov-3, 72 h, read-out: IC50 (uM) Liquid culture
# PC3 = assay: Cell growth in liquid culture (alamarBlue); details: Homo sapiens, PC-3, 72 h, read-out: IC50 (uM) Liquid culture
# DU145 = assay: Cell growth in soft agar culture (alamarBlue); details: Homo sapiens, DU-145, 168 h, read-out: IC50 (uM) Soft agar
# SW480 = assay: Cell growth in soft agar culture (alamarBlue); details: Homo sapiens, SW480, 168 h, read-out: IC50 (uM) Soft agar
# Pc3M/N [14] = assay: Cell growth in liquid culture (alamarBlue); details: Homo sapiens, PC-3M, 72 h, read-out: IC50 (uM) Liquid culture
# NCI-H460 = assay: Cell growth in soft agar culture (alamarBlue); details: Homo sapiens, NCI-H460, 168 h, read-out: IC50 (uM) Soft agar
smiles,measurement,setting,value
"Cc1cc(/C=C/c2ccc3cc(N(C)C)ccc3[n+]2C)c(C)n1-c1ccccc1 [Example 1, Pyrvinium Phosphate]",IC50,Pc3M/N [1],~0.3 µM
same,IC50,HS578 [2],0.03 to 0.1 µM
same,IC50,DLD1 [3],0.3 to 1 µM
same,IC50,HS578 [4],0.1 to 0.3 µM
same,IC50,Panc-1 [5],0.3 to 1 µM
same,Result: Tumor reduction,[6],Tumor reduction (25%)
same,IC50,HCT116,> 1 µM
same,IC50,SK-OV-3,0.03 to 0.1 µM
same,IC50,MDA_MB-435 [7],0.3 to 1 µM
same,IC50,MDA_MB-435 [8],0.03 to 0.1 µM
same,IC50,IMR90,0.1 to 0.3 µM
same,IC80,"HCT-116; HCT-116, HCT-116, (+) Glu",1000 nM
same,IC80,"HCT-116; HCT-116, HCT-116, (−) Glu",100 nM
same,IC80,Pc3M/N [9]; (+) Glu,1000 nM
same,IC80,Pc3M/N [9]; (−) Glu,100 nM
same,IC80,"Panc-1 [10]; PANC-1, Panc-1, (+) Glu",> 1000 nM
same,IC80,"Panc-1 [10]; PANC-1, Panc-1, (−) Glu",100 nM
same,IC50,SKBR3 [11],~1 µM
same,IC50,A2058,0.1 to 0.3 µM
same,IC50,UACC257,0.1 to 0.3 µM
same,IC50,UACC62,0.1 to 0.3 µM
same,IC50,T47D,~0.03 µM
same,IC50,DLD1 [12],~1 µM
same,IC50,OVCAR-1,0.03 to 0.1 µM
same,IC50,SKBR3 [13],~1 µM
same,IC50,Caov-3,0.03 to 0.1 µM
same,IC50,PC3,0.1 to 0.3 µM
same,IC50,DU145,0.3 to 1 µM
same,IC50,SW480,0.3 to 1 µM
same,IC50,Pc3M/N [14],> 1 µM
same,IC50,NCI-H460,0.03 to 0.1 µM
